Three compounds from EP0624573A1, “Iodo vitamin D3 compounds and method for preparing same” (WISCONSIN ALUMNI RESEARCH FOUNDATION, priority 1993, dated 1994) can be followed below.

One assay has as its system HL-60 cells. As to the kind of experiment: HL-60 differentiation assay, NBT (nitroblue tetrazolium reduction). The class given is cell-based, human. Conditions: for percent of HL-60 cells having differentiated to monocytes: NBT assay, concentration of 1 x 10⁻⁷ molar (Fig. 1); for potency in promoting the differentiation of leukemia cells: in words, compared with 1α,25-dihydroxyvitamin D₃ (Fig. 1). The procedure:
This is illustrated by the biological assay results obtained for the claimed 22-iodo-vitamin D₃ compounds, which are summarized in Figs. 1 and 2, and Table 1. […] Differentiation activity was assessed by a standard differentiation assay, abbreviated in Fig. 1 as NBT (nitroblue tetrazolium reduction). The assay was conducted according to known procedures, as given, for example, by DeLuca et al U. S. Patent 4,717,721 and Ostrem et al, J. Biol. Chem. 262, 14164, 1987. For the assay, the differentiation activity of the test compounds is expressed in terms of the percent of HL-60 cells having differentiated to monocytes in response to a given concentration of test compound.

Assay [1] can be described thus: Intestinal calcium transport in vitamin D-deficient, low calcium diet rats. In kind it is in vivo. Conditions: for Intestinal Calcium Transport (Serosal/Mucosal Ratio): duodenum on day 7. As to the method:
(§1) Rats were fed the vitamin D-deficient, low calcium (0.02%) diet for 3 weeks and then given the indicated dose in 0.1 ml propylene glycol:ethanol (95:5) intraperitoneally each day for 6 days. On day 7, serum was analyzed for calcium and the duodenum used to measure intestinal calcium transport as described by Martin et al. Am. J. Physiol.

Assay [2] in a line: Bone calcium mobilization (serum calcium) in vitamin D-deficient, low calcium diet rats. Conditions: for Bone Calcium Mobilization (Serum Calcium): serum on day 7. The class given is in vivo. As to the method:
as §1

Setting [3] is: dose 1.0 µg/d/6 days intraperitoneally.
Setting [4] is: dose 0.1 µg/d/6 days intraperitoneally.

Consider `C=C1/C(=C\C=C2/CCC[C@]3(C)[C@@H]([C@H](C)[C@@H](I)CCC(C)(C)O)CC[C@@H]23)C[C@@H](O)C[C@@H]1O` [compound 9, (22S)-iodo-1α,25-dihydroxyvitamin D₃], for which, in the assay with HL-60 cells, the “percent of HL-60 cells having differentiated to monocytes” value is given as “the same degree of differentiation” and the “potency in promoting the differentiation of leukemia cells” value is “as potent as 1α,25-dihydroxyvitamin D₃”. For the same compound, the “biological activity in intestinal calcium transport relative to that of 1,25-(OH)₂D₃” value in assay [1] (Table 1 (1.0 µg/d versus 0.1 µg/d of 1,25-(OH)₂D₃)) was “about double”. Also, the “Intestinal Calcium Transport (Serosal/Mucosal Ratio)” value in assay [1] (setting [3]) is recorded as 22.8 ± 1.4. The “Bone Calcium Mobilization (Serum Calcium)” value in assay [2] (setting [3]) is listed as 4.9 ± 0.1 mg/100 ml. Moreover, the “bone calcium mobilizing activity” value in assay [2] (in words, 1µg per day for six days) is “little or no bone calcium mobilizing activity”.
On to `C=C1/C(=C\C=C2/CCC[C@]3(C)[C@@H]([C@H](C)[C@H](I)CCC(C)(C)O)CC[C@@H]23)C[C@@H](O)C[C@@H]1O` [compound 11, (22R)-iodo-1α,25-dihydroxyvitamin D₃], for which, in the assay with HL-60 cells, the “percent of HL-60 cells having differentiated to monocytes” value is recorded as “the same degree of differentiation” and the “potency in promoting the differentiation of leukemia cells” value is reported as “as potent as 1α,25-dihydroxyvitamin D₃”.
Consider `C=C1/C(=C\C=C2/CCC[C@]3(C)[C@@H]([C@H](C)CCCC(C)(C)O)CC[C@@H]23)C[C@@H](O)C[C@@H]1O` [1,25-(OH)₂D₃, 1α,25-dihydroxyvitamin D₃, reference compound], for which the “percent of HL-60 cells having differentiated to monocytes” value in the assay with HL-60 cells is reported as roughly 90%. In assay [1] (setting [4]), the “Intestinal Calcium Transport (Serosal/Mucosal Ratio)” value came out at 11.2 ± 1.2. Also, in assay [2] (setting [4]), the “Bone Calcium Mobilization (Serum Calcium)” value came out at 5.9 ± 0.3 mg/100 ml.
